Laboratory results as given in PMC9307983 (Acta Naturae, 2022).
Read-outs that look alike come from different tables or passages of the source. Marks after values point to notes of the source that are not given here.

Assays:
MGL, wild type [1] = conditions: cited from earlier work
MGL, Ser339Ala [2] = target: T1, MGL, Ser339Ala (Citrobacter freundii, UniProt Q84AR1, S339A); type: biochemical; conditions: for Km / kcat: Ser339Ala MGL, 30°C, pH 8.0, coupled with HOHxoDH or LDH; for specific activity: Ser339Ala MGL samples of 95% purity, 30 mM substrate, pH 8.0
Experimental: The homogeneity of samples was examined by PAGE electrophoresis under denaturing conditions. During purification, activity was determined in the β-elimination reaction; activity of the final sample was determined in β- and γ-elimination reactions. […] The amount of enzyme that catalyzes the formation of […] of keto acid was defined as the unit of enzymatic activity.
(§1) The kinetic parameters of the γ- and β-elimination reactions were determined at 30°C in the conjugate reaction with HOHxoDH or LDH based on a decrease in NADH absorbance at 340 nm (Δε = 6,220 M^–1cm^–1). The reaction mixtures contained a 100-mM potassium phosphate buffer, pH 8.0, 0.1 mM PLP, 1 mM DTT, 0.2 mM NADH, 70 μg HOHxoDH or 10 U LDH, and variable amounts of the substrate in a total volume of 1 mL. The reaction was initiated by the addition of 10 μg of the enzyme.
(§2) The kinetic parameters were calculated according to the Michaelis–Menten equation using the EnzFitter software. In the calculations, an enzyme subunit molecular weight of 43 kDa was used. The inhibition constants were also determined using the EnzFitter software.

MGL, wild type [3] = conditions: cited from earlier work; remark: listed apart in the source
MGL, Ser339Ala [4] = target: T1, MGL, Ser339Ala; assay: biochemical; type: biochemical; conditions: for Ki: Ser339Ala MGL, γ-elimination of L-methionine, 30°C, pH 8.0, read-out: K I (inhibition constant); for type of inhibition of the physiological reaction: mutant enzyme (Ser339Ala MGL)
Experimental: as §1, §2

MGL, wild type [5] = target: MGL, wild type; set-up: method as in PMID 21166645; conditions: cited from earlier work; for Ki: wild type MGL, γ-elimination of L-methionine, read-out: K I (inhibition constant); for type of inhibition of the physiological reaction: wild-type enzyme
MGL, Ser339Ala [6] = target: T1, MGL, Ser339Ala; type: biochemical; conditions: for kex, α-H (exchange rate of C-α-proton) / kex, β-H (exchange rate of C-β-protons): Ser339Ala MGL, D2O, pD 7.6, 30°C, L-alanine 144.23 mM, L-norleucine 98.04 mM; for Number of exchanged C-α-protons / Number of exchanged C-β-protons: common to wild type and Ser339Ala MGL
Experimental: The kinetics of isotope exchange reactions of the C-α- and C-β-protons for deuteron in inhibitors, catalyzed by the mutant form, was detected using 1H NMR spectroscopy. The reaction was conducted in D2O containing 50 mM potassium phosphate (pD = 7.6), 0.1 mM PLP, and an inhibitor in a total volume of 0.5 mL at 30°C at L-alanine and L-norleucine concentrations of 144.23 mM and 98.04 mM, respectively. The reaction was initiated by adding 0.3–0.7 mg of the enzyme. 1H NMR spectra were recorded at fixed time intervals on a Bruker AMXIII-400 spectrometer at an operating frequency of 400 MHz. The signals of the C-α- and C-β-protons were integrated using the modified Enzkin computer program, which is a part of the XWIN-NMR programs. The kinetic curves of the yields of deuterated products were processed according to the method described in [39]. […]

wild-type MGL = conditions: read-out: dissociation constant of the PLP complex; cited from earlier work
[7] = wild type MGL, substrate of elimination reaction

## NC(CCS)C(=O)O (racemic) [DL-Hcy]
MGL, wild type [1]; [7]
  Km: 970 ± 150 µM
  kcat: 8.51 ± 0.41* s^–1
MGL, Ser339Ala [2]
  Km: 3390 ± 340 µM
  kcat: 0.28 ± 0.009 s^–1

## NCC(=O)O [Gly, glycine]
MGL, wild type [3]
  kex, α-H (exchange rate of C-α-proton): 20.2* s^-1
MGL, Ser339Ala [4]
  Ki: 22.9 ± 2.84 mM
  type of inhibition of the physiological reaction: competitive inhibitors
MGL, wild type [5]
  Ki: 48.5 ± 4.37 mM
  type of inhibition of the physiological reaction: competitive inhibitors
MGL, Ser339Ala [6]
  kex, α-H (exchange rate of C-α-proton): 0.078 s⁻¹
MGL, Ser339Ala [6]; mutant form, long incubation in D2O (led to inactivation of the enzyme)
  exchange of the pro-(S) proton: unable to detect any exchange

## C[C@H](N)C(=O)O [L-Ala, L-alanine]
MGL, wild type [3]; wild type MGL
  kex, α-H (exchange rate of C-α-proton): 2.71* s^-1
  kex, β-H (exchange rate of C-β-protons): 2.63* s^-1
MGL, Ser339Ala [4]
  type of inhibition of the physiological reaction: competitive inhibitors
MGL, wild type [5]
  Ki: 3.41 ± 0.4 mM
  type of inhibition of the physiological reaction: competitive inhibitors
MGL, Ser339Ala [6]
  kex, α-H (exchange rate of C-α-proton): 0.387 s⁻¹
  kex, β-H (exchange rate of C-β-protons): 0.116 s⁻¹
  Number of exchanged C-α-protons: 1
  Number of exchanged C-β-protons: 3

## CSCC[C@H](N)C(=O)O [L-Met, L-methionine]
MGL, wild type [1]; [7]
  Km: 700 ± 110 µM
  kcat: 6.2 ± 0.42* s^–1
MGL, Ser339Ala [2]
  specific activity: 0.31 U/mg

## CCCC[C@H](N)C(=O)O [L-Nle, L-norleucine]
MGL, wild type [3]; wild type MGL
  kex, α-H (exchange rate of C-α-proton): 41.8* s^-1
  kex, β-H (exchange rate of C-β-protons): 4.74* s^-1
MGL, Ser339Ala [4]
  Ki: 0.89 ± 0.09 mM
  type of inhibition of the physiological reaction: competitive inhibitors
MGL, wild type [5]
  Ki: 0.6 ± 0.06 mM
  type of inhibition of the physiological reaction: competitive inhibitors
MGL, Ser339Ala [6]
  kex, α-H (exchange rate of C-α-proton): 0.46 s⁻¹
  kex, β-H (exchange rate of C-β-protons): 0.12 s⁻¹
  Number of exchanged C-α-protons: 1
  Number of exchanged C-β-protons: 2

## CCC[C@H](N)C(=O)O [L-Nva, L-norvaline]
MGL, Ser339Ala [4]
  Ki: 1.7 ± 0.32 mM
  type of inhibition of the physiological reaction: competitive inhibitors
MGL, wild type [5]
  Ki: 4.6 ± 0.43 mM
  type of inhibition of the physiological reaction: competitive inhibitors

## CC[C@H](N)C(=O)O [L-α-Abu, L-α-aminobutyric acid]
MGL, Ser339Ala [4]
  Ki: 4.66 ± 0.51 mM
  type of inhibition of the physiological reaction: competitive inhibitors
MGL, wild type [5]
  Ki: 8.01 ± 0.76 mM
  type of inhibition of the physiological reaction: competitive inhibitors

## CC(=O)OCC[C@H](N)C(=O)O [O-Ac-L-Hse, O-acetyl-L-homoserine]
MGL, wild type [1]; [7]
  Km: 2910 ± 180 µM
  kcat: 2.1 ± 0.053** s^–1
MGL, Ser339Ala [2]
  Km: 2070 ± 220 µM
  kcat: 0.77 ± 0.011 s^–1

## CC(=O)OC[C@H](N)C(=O)O [O-Ac-L-Ser]
MGL, wild type [1]; [7]
  Km: 4280 ± 330 µM
  kcat: 2.13 ± 0.037*** s^–1
MGL, Ser339Ala [2]
  Km: 16400 ± 1090 µM
  kcat: 0.047 ± 0.001 s^–1

## Cc1ncc(COP(=O)(O)O)c(C=O)c1O [PLP, pyridoxal 5’-phosphate]
wild-type MGL
  Kd: 0.000624 mM

## CCSCC[C@H](N)C(=O)O [S-Et-L-Hcy]
MGL, wild type [1]; [7]
  Km: 540 ± 10 µM
  kcat: 6.78 ± 0.02* s^–1
MGL, Ser339Ala [2]
  Km: 540 ± 37 µM
  kcat: 0.16 ± 0.0016 s^–1

## S-benzyl-L-cysteine [S-Bzl-L-Cys]
MGL, wild type [1]
  Km: 180 ± 20 µM
MGL, wild type [1]; [7]
  kcat: 8.16 ± 0.23* s^–1
MGL, Ser339Ala [2]
  Km: 5760 ± 590 µM
  kcat: 1.81 ± 0.094 s^–1

## S-ethyl-L-cysteine [S-Et-L-Cys]
MGL, wild type [1]
  Km: 170 ± 20 µM
MGL, wild type [1]; [7]
  kcat: 5.03 ± 0.16* s^–1
MGL, Ser339Ala [2]
  specific activity: 1.03 U/mg
  Km: 6470 ± 540 µM
  kcat: 0.67 ± 0.024 s^–1

## S-methyl-L-cysteine [S-Met-L-Cys]
MGL, wild type [1]; [7]
  Km: 710 ± 110 µM
  kcat: 4.6 ± 0.29* s^–1
MGL, Ser339Ala [2]
  Km: 21800 ± 2250 µM
  kcat: 0.41 ± 0.018 s^–1
